Test system: Crl:CD(SD) rats
Conditions: rat, in vivo

Structure (SMILES): FC(F)(F)[C@@H]1O[C@@H]1C(F)(F)F [(2R,3S)-2,3-bis(trifluoromethyl)oxirane, Cis-2,3-bis(trifluoromethyl)oxirane]
- Fractional mortalities (number of deaths/number exposed) (both, Crl:CD(SD)): 0/4
- activity level and breathing rate: decreased
- bodyweight loss: 3 gram
- clinical signs after exposure: no abnormal clinical signs
- clinical signs of toxicity: no clinical signs of toxicity
- startle response after exposure: normal startle response
- startle response during the exposure: normal startle responses
- state and response to sound stimulus: prostrate and unresponsive to sound stimulus
